Results as given in ChEMBL document CHEMBL4020731, “Dimeric isoxazolyl-1,4-dihydropyridines have enhanced binding at the multi-drug resistance transporter” (Bioorg Med Chem, 2017).

Columns and labels:
[1] = target: Voltage-gated L-type calcium channel (Homo sapiens, UniProt Q13936+Q13698+Q01668+O60840); assay: Displacement of [3H]PN-200110 from voltage-dependent L-type calcium channel (unknown origin) by scintillation counting method
[2] = target: Metabotropic glutamate receptor 5 (Rattus norvegicus) (UniProt P31424); assay: Displacement of [3H]MPEP from rat brain mGluR5 expressed in CHO cells by scintillation counting method; format: cell-based
[3] = target: MDR-1 (P-glycoprotein, ABCB1) (Homo sapiens, UniProt P08183); assay: (§1) Inhibition of MDR-1 in human Caco-2 cells at 10 uM after 30 mins by calcein-AM dye based fluorescence assay relative to cyclosporin; format: cell-based; settings: Caco-2 cells, probe calcein-AM
[4] = target: T1, ATP-dependent translocase ABCB1 (Homo sapiens, UniProt P08183); assay: Inhibition of MDR-1 in human Caco-2 cells after 30 mins by calcein-AM dye based fluorescence assay; format: cell-based
[5] = target: T1, ATP-dependent translocase ABCB1; assay: as §1; format: cell-based; settings: 0.5 h, 10 µM

Sequence of MDR-1 (P-glycoprotein, ABCB1) (P08183 whole entry): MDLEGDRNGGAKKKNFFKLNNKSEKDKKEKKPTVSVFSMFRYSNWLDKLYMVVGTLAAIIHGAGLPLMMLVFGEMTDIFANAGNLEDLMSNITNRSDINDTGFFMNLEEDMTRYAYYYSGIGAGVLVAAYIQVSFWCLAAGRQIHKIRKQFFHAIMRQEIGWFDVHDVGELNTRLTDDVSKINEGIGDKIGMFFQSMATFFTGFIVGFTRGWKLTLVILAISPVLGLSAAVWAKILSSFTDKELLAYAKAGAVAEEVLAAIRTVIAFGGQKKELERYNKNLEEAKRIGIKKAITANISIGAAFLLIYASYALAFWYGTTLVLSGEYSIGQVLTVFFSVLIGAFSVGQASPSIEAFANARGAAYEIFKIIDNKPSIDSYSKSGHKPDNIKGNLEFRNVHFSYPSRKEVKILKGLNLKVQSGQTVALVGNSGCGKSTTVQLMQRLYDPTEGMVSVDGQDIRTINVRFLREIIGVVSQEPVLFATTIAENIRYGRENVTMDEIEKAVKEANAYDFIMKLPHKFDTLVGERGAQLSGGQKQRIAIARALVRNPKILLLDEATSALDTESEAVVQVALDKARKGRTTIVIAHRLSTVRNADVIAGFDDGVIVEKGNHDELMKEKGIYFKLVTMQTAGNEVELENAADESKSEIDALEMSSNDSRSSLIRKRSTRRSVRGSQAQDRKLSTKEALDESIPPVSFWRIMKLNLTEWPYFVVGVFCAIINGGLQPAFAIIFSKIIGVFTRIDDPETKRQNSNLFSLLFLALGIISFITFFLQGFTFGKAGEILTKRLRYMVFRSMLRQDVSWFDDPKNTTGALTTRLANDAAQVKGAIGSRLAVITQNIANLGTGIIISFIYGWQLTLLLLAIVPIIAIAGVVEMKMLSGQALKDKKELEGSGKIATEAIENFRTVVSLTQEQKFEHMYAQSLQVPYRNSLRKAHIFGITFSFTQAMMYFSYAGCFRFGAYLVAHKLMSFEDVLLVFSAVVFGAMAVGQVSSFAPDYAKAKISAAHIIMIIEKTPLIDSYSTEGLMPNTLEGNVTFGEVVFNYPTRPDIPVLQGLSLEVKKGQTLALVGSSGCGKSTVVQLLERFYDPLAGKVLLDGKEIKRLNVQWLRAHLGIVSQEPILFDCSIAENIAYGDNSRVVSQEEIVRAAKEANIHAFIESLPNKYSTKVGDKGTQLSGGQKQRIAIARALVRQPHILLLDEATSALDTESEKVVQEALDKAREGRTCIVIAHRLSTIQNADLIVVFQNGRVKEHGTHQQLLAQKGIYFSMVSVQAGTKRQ
T1 sequence (P08183 whole entry): as above
Sequence of Metabotropic glutamate receptor 5 (Rattus norvegicus) (P31424 21-1203 limits assumed): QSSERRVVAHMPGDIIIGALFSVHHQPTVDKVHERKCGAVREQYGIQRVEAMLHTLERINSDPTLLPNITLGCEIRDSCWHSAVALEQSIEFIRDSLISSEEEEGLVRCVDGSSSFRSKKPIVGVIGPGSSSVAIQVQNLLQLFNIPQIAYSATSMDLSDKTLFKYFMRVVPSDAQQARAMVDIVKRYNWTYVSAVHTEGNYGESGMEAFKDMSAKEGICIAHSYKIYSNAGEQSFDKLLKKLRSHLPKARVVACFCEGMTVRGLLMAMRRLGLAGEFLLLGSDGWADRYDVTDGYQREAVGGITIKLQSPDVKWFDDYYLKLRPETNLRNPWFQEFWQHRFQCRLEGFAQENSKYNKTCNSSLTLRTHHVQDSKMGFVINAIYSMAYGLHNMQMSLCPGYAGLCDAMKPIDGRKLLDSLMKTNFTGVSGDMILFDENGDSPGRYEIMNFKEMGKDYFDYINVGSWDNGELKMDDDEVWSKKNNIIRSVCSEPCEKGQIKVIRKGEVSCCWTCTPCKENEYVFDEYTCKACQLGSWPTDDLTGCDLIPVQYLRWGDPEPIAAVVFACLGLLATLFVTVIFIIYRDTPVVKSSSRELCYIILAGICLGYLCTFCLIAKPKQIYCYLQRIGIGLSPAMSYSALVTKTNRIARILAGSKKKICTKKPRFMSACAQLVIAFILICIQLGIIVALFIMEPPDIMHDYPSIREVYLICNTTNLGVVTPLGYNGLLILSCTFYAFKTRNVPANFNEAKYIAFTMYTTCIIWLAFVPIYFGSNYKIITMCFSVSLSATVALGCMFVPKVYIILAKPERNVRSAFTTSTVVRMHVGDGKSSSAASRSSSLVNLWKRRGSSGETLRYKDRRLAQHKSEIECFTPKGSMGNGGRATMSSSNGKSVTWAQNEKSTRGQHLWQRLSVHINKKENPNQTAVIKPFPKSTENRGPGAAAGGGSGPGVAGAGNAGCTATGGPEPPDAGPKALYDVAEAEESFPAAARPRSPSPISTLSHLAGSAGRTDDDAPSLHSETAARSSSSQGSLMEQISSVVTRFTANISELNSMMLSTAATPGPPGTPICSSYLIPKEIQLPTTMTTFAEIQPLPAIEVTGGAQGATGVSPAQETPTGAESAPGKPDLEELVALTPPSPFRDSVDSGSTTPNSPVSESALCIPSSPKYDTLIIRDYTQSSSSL

Compound	IC50 [1] [nM]	Ki [2] [nM]	inhibition at 0.5 h, 10 µM [3] [%]	IC50 [4] [nM]	pIC50 [1]	inhibition (INH) [5] [%]
CCOC(=O)C1=C(C)NC(C)=C(C(=O)OCC)C1c1c(-c2ccccc2Br)noc1C	909	1520	-12	> 10000	–	–
CCOC(=O)C1=C(C)NC(C)=C(C(=O)OCc2cn(CCc3ccccc3)nn2)C1c1c(-c2ccc(Br)cc2)noc1C (stereo not given)	127	1970	108	1640	–	–
CCOC(=O)c1c(C)nc(C)c(C(=O)OCC)c1-c1c(-c2ccccc2)noc1C	> 10000	> 10000	36.9	> 10000	–	–
CCOC(=O)C1=C(C)NC(C)=C(C(=O)OCC)C1c1c(-c2ccc(Br)cc2)noc1C	36	> 10000	58.4	3100	7.44	–
CCOC(=O)C1=C(C)NC(C)=C(C(=O)OCc2cn(CCOCCOCCOCCOCCOCCn3cc(COC(=O)C4=C(C)NC(C)=C(C(=O)OCC)C4c4c(-c5ccccc5Br)noc4C)nn3)nn2)C1c1c(-c2ccccc2Br)noc1C (stereo not given)	> 10000	4860	17.7	2860	–	–
CCOC(=O)C1=C(C)NC(C)=C(C(=O)OCc2cn(CCOCCOCCOCCn3cc(COC(=O)C4=C(C)NC(C)=C(C(=O)OCC)C4c4c(-c5ccc(Br)cc5)noc4C)nn3)nn2)C1c1c(-c2ccc(Br)cc2)noc1C (stereo not given)	516	546	11.6	3230	–	–
CCOC(=O)C1=C(C)NC(C)=C(C(=O)OCC)C1c1c(-c2cccc(Br)c2)noc1C	208	> 10000	102	510	–	–
CCOC(=O)C1=C(C)NC(C)=C(C(=O)OCc2cn(CCOCCOCCOCCOCCOCCn3cc(COC(=O)C4=C(C)NC(C)=C(C(=O)OCC)C4c4c(-c5ccc(Br)cc5)noc4C)nn3)nn2)C1c1c(-c2ccc(Br)cc2)noc1C (stereo not given)	2706	193	–	1390	–	172.6
CCOC(=O)C1=C(C)NC(C)=C(C(=O)OCc2cn(CCOCCOCCOCCOCCOCCn3cc(COC(=O)C4=C(C)NC(C)=C(C(=O)OCC)C4c4c(-c5ccccc5)noc4C)nn3)nn2)C1c1c(-c2ccccc2)noc1C (stereo not given)	> 10000	> 10000	20.4	> 10000	–	–
CCOC(=O)C1=C(C)NC(C)=C(C(=O)OCc2cn(CCOCCOCCOCCOCCOCCn3cc(COC(=O)C4=C(C)NC(C)=C(C(=O)OCC)C4c4c(-c5cccc(Br)c5)noc4C)nn3)nn2)C1c1c(-c2cccc(Br)c2)noc1C (stereo not given)	3766	8640	–	1300	–	150.8
CCOC(=O)C1=C(C)NC(C)=C(C(=O)OCc2cn(CCOCCOCCn3cc(COC(=O)C4=C(C)NC(C)=C(C(=O)OCC)C4c4c(-c5ccc(Br)cc5)noc4C)nn3)nn2)C1c1c(-c2ccc(Br)cc2)noc1C (stereo not given)	603	933	41.9	1450	–	–
